Measured values: patent US12251459B2, “Compositions, formulations, and methods for hair treatment” (Oddity Labs, LLC, priority 2022, dated 2025)

What follows are molecules tested on human hair follicle dermal papilla cells (hFDPC) (assay: Human follicle dermal papilla cells (hFDPC) proliferation assay). Conditions: hFDPCs supplemented with BIO, BMP-2 and FGFβ.
Assay type: cell-based
From the text: In Table 8, A represents less than 20% of increased proliferation of hFDPCs, B represents 20-40%, and C represents larger than 40% of increased proliferation of hFDPCs.

SMILES	Percent Increase Proliferation of hFDPCs (%)
C=CCc1cc(/C=C2\C(=O)NC(=O)N(c3ccc(C(C)C)cc3)C2=O)cc(OC)c1O [I-1]	A (A represents less than 20% of increased proliferation of hFDPCs)
C=CCc1cc(/C=C2\C(=O)NC(=O)N(c3cc(C)cc(C)c3)C2=O)cc(OCC)c1O [I-2, 2,4,6(1H,3H,5H)-Pyrimidinetrione, 1-(3,5-dimethylphenyl)-5-[[3-ethoxy-4-hydroxy-5-(2-propen-1-yl)phenyl]methylene]-]	B (B represents 20-40%)
C=CCc1cc(/C=C2\C(=O)NC(=O)N(c3cc(C)cc(C)c3)C2=O)cc(OC)c1O [I-3, 2,4,6(1H,3H,5H)-Pyrimidinetrione, 1-(3,5-dimethylphenyl)-5-[[4-hydroxy-3-methoxy-5-(2-propen-1-yl)phenyl]methylene]-]	A (A represents less than 20% of increased proliferation of hFDPCs)
C=CCc1cc(/C=C2\C(=O)NC(=O)N(c3ccc(C)c(C)c3)C2=O)cc(OC)c1O [I-4]	A (A represents less than 20% of increased proliferation of hFDPCs)
COc1cc(/C=C2\C(=O)NC(=O)N(Cc3ccccc3)C2=O)cc(OC)c1O [I-5, 2,4,6(1H,3H,5H)-Pyrimidinetrione, 5-[(4-hydroxy-3,5-dimethoxyphenyl)methylene]-1-(phenylmethyl)-]	B (B represents 20-40%)
C=CCN1C(=O)NC(=O)/C(=C\c2ccc(OC)cc2OC)C1=O [I-6, 2,4,6(1H,3H,5H)-Pyrimidinetrione, 5-[(2,4-dimethoxyphenyl)methylene]-1-(2-propen-1-yl)-]	A (A represents less than 20% of increased proliferation of hFDPCs)
C=CCOc1ccc(/C=C2/C(=O)NC(=O)N(CC=C)C2=O)cc1OC [I-7]	A (A represents less than 20% of increased proliferation of hFDPCs)
C=CCc1cc(C=C2C(=O)NC(=S)NC2=O)cc(OCC)c1O [I-8]	B (B represents 20-40%)
C=CCc1cc(C=C2C(=O)NC(=S)NC2=O)cc(OC)c1O [I-9, 4,6(1H,5H)-Pyrimidinedione, dihydro-5-[[4-hydroxy-3-methoxy-5-(2-propen-1-yl)phenyl]methylene]-2-thioxo-]	B (B represents 20-40%)
C=CCc1cc(/C=C2\C(=O)NC(=S)N(C)C2=O)cc(OC)c1OCC [I-10]	A (A represents less than 20% of increased proliferation of hFDPCs)
COc1ccc(/C=C2\C(=O)NC(=O)N(C)C2=O)c(OC)c1 [I-11, 2,4,6(1H,3H,5H)-Pyrimidinetrione, 5-[(2,4-dimethoxyphenyl)methylene]-1-methyl-, (5E)-]	A (A represents less than 20% of increased proliferation of hFDPCs)
CCCCN1CCc2cc(/C=C3\C(=O)NC(=O)N(C)C3=O)ccc21 [I-12, 2,4,6(1H,3H,5H)-Pyrimidinetrione, 5-[(1-butyl-2,3-dihydro-1H-indol-5-yl)methylene]-1-methyl-]	B (B represents 20-40%)
CN1C(=O)NC(=O)/C(=C/c2cnc(N(C)C)nc2)C1=O [I-13, 2,4,6(1H,3H,5H)-Pyrimidinetrione, 5-[[2-(dimethylamino)-5-pyrimidinyl]methylene]-1-methyl-]	A (A represents less than 20% of increased proliferation of hFDPCs)
CN1C(=O)NC(=O)/C(=C\c2cccc(OCC(=O)O)c2)C1=O [I-14]	A (A represents less than 20% of increased proliferation of hFDPCs)
COc1cc([N+](=O)[O-])cc(/C=C2\C(=O)NC(=O)N(C)C2=O)c1O [I-15, 2,4,6(1H,3H,5H)-Pyrimidinetrione, 5-[(2-hydroxy-3-methoxy-5-nitrophenyl)methylene]-1-methyl-]	B (B represents 20-40%)
C=CCc1cc(/C=C2\C(=O)NC(=O)N(C)C2=O)cc(OC)c1O [I-16]	A (A represents less than 20% of increased proliferation of hFDPCs)
Cc1ccc(-c2nnc(N3CCN(C(=O)C4CCCCC4)CC3)c3ccccc23)cc1 [II-1, Methanone, cyclohexyl[4-[4-(4-methylphenyl)-1-phthalazinyl]-1-piperazinyl]-]	A (A represents less than 20% of increased proliferation of hFDPCs)
Cc1ccc(C(=O)N2CCN(c3nnc(-c4ccc(C)cc4)c4ccccc34)CC2)cc1 [II-2, Methanone, (4-methylphenyl)[4-[4-(4-methylphenyl)-1-phthalazinyl]-1-piperazinyl]-]	B (B represents 20-40%)
Cc1ccc(-c2nnc(N3CCN(S(C)(=O)=O)CC3)c3ccccc23)cc1 [II-3, Phthalazine, 1-(4-methylphenyl)-4-[4-(methylsulfonyl)-1-piperazinyl]-]	B (B represents 20-40%)
Cc1ccc(OCC(=O)N2CCN(c3nnc(-c4ccc(C)cc4)c4ccccc34)CC2)cc1 [II-5, Ethanone, 2-(4-methylphenoxy)-1-[4-[4-(4-methylphenyl)-1-phthalazinyl]-1-piperazinyl]-]	B (B represents 20-40%)
CCCC(=O)N1CCN(c2nnc(-c3ccc(C)cc3)c3ccccc23)CC1 [II-6, 1-Butanone, 1-[4-[4-(4-methylphenyl)-1-phthalazinyl]-1-piperazinyl]-]	B (B represents 20-40%)
COc1ccc(N2CCN(C(=O)c3cc(-c4cccs4)nc4ccccc34)CC2)cc1 [III-1, Methanone, [4-(4-methoxyphenyl)-1-piperazinyl][2-(2-thienyl)-4-quinolinyl]-]	A (A represents less than 20% of increased proliferation of hFDPCs)
Cc1cccc(Cn2cnc(NC(=O)c3cc(-c4cccnc4)nc4ccc(C)cc34)n2)c1 [III-2, 4-Quinolinecarboxamide, 6-methyl-N-[1-[(3-methylphenyl)methyl]-1H-1,2,4-triazol-3-yl]-2-(3-pyridinyl)-]	A (A represents less than 20% of increased proliferation of hFDPCs)
Cc1cc(C)n(Cc2ccc(NC(=O)c3cc(-c4ccc(C)c(C)c4)nc4ccccc34)cc2)n1 [III-3, 4-Quinolinecarboxamide, 2-(3,4-dimethylphenyl)-N-[4-[(3,5-dimethyl-1H-pyrazol-1-yl)methyl]phenyl]-]	B (B represents 20-40%)
CCOCCc1nnc(NC(=O)c2cc(-c3ccccc3)nc3ccccc23)s1 [III-4, 4-Quinolinecarboxamide, N-[5-(2-ethoxyethyl)-1,3,4-thiadiazol-2-yl]-2-phenyl-]	B (B represents 20-40%)
Cc1ccc(-c2cc(C(=O)NNC(=O)NC34CC5CC(CC(C5)C3)C4)c3ccccc3n2)c(C)c1 [III-5, 4-Quinolinecarboxylic acid, 2-(2,4-dimethylphenyl)-, 2-[(tricyclo[3.3.1.1^3,7]dec-1-ylamino)carbonyl]hydrazide]	A (A represents less than 20% of increased proliferation of hFDPCs)
